Assay results reported in PubChem BioAssay AID1963850 (Molecular Pharmacology Branch, DTP, NCI, 2024).
pIC50: −log10 of the molar value.

System: 192522-019-R-J2-PDC complex tumor spheroid viability
Experiment: Anticancer human tumor 192522-019-R-J2-PDC patient-derived colon adenocarcinoma cell line growth inhibition [POLQ]
Details: for pIC50: curve of first compound; for viability, T/C: stronger effect = lower value
In short: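 Patient-derived tumour cells were co-cultured with HUVEC and mesenchymal stem cells as multicellular spheroids at 37 °C. They were treated with POLQ inhibitors (novobiocin, ART-558, RP6685) alone or combined with other agents. Top concentrations were at or near clinical Cmax (otherwise 10 microM; SN-38 at 1 microM), decreasing in half-log steps.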
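Also: spheroids exposed to drugs for seven days before reading.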
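For viability, T/C in this document: 100% = DMSO vehicle control viability in luminescence.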

In the case of `CC1COCCN1c1cc(C2(O)CC3CCC(C2)O3)c2cnn(-c3ccn[nH]3)c2n1` (configuration not stated) + Nc1ccc(C#CCN(C(=O)Cc2ncc(C(F)(F)F)cc2C(F)(F)F)c2ccc(F)cc2)nn1, the pIC50 (second compound 0.0316 µM) was 6.59, the pIC50 (second compound 0.1 µM) was 6.58 and the pIC50 (second compound 0.316 µM) was 6.58. The pIC50 (second compound 1 µM) was 6.56, the pIC50 (second compound 3.16 µM) was 6.48 and the pIC50 (second compound 10 µM) was 6.55. For the same molecule, the viability, T/C (second compound 0.0316 µM, first compound 0.0316 µM) was 95.5%, the viability, T/C (second compound 0.0316 µM, first compound 0.1 µM) was 76.8% and the viability, T/C (second compound 0.0316 µM, first compound 0.316 µM) was 44.7%. It also gave a viability, T/C (second compound 0.0316 µM, first compound 1 µM) of 34.4%, a viability, T/C (second compound 0.0316 µM, first compound 3.16 µM) of 44% and a viability, T/C (second compound 0.0316 µM, first compound 10 µM) of 50.1%. The viability, T/C (second compound 0.1 µM, first compound 0.0316 µM) was 99.2%, the viability, T/C (second compound 0.1 µM, first compound 0.1 µM) was 85.3% and the viability, T/C (second compound 0.1 µM, first compound 0.316 µM) was 42.2%. The viability, T/C (second compound 0.1 µM, first compound 1 µM) was 37.6%, the viability, T/C (second compound 0.1 µM, first compound 3.16 µM) was 41.3% and the viability, T/C (second compound 0.1 µM, first compound 10 µM) was 53%. The viability, T/C (second compound 0.316 µM, first compound 0.0316 µM) was 97.2%, the viability, T/C (second compound 0.316 µM, first compound 0.1 µM) was 80.5% and the viability, T/C (second compound 0.316 µM, first compound 0.316 µM) was 44.3%. For the same molecule, the viability, T/C (second compound 0.316 µM, first compound 1 µM) was 35.8%, the viability, T/C (second compound 0.316 µM, first compound 3.16 µM) was 44.7% and the viability, T/C (second compound 0.316 µM, first compound 10 µM) was 48.6%. For the same molecule, the viability, T/C (second compound 1 µM, first compound 0.0316 µM) was 97.1%, the viability, T/C (second compound 1 µM, first compound 0.1 µM) was 81.8% and the viability, T/C (second compound 1 µM, first compound 0.316 µM) was 45.9%. For the same molecule, the viability, T/C (second compound 1 µM, first compound 1 µM) was 36.9%, the viability, T/C (second compound 1 µM, first compound 3.16 µM) was 45.1% and the viability, T/C (second compound 1 µM, first compound 10 µM) was 51.8%. For the same molecule, the viability, T/C (second compound 3.16 µM, first compound 0.0316 µM) was 97.6%, the viability, T/C (second compound 3.16 µM, first compound 0.1 µM) was 82.3% and the viability, T/C (second compound 3.16 µM, first compound 0.316 µM) was 51.2%. It also gave a viability, T/C (second compound 3.16 µM, first compound 1 µM) of 36.6%, a viability, T/C (second compound 3.16 µM, first compound 3.16 µM) of 46.6% and a viability, T/C (second compound 3.16 µM, first compound 10 µM) of 49.6%. For the same molecule, the viability, T/C (second compound 10 µM, first compound 0.0316 µM) was 92.4%, the viability, T/C (second compound 10 µM, first compound 0.1 µM) was 74.8% and the viability, T/C (second compound 10 µM, first compound 0.316 µM) was 47.8%. For the same molecule, the viability, T/C (second compound 10 µM, first compound 1 µM) was 36.4%, the viability, T/C (second compound 10 µM, first compound 3.16 µM) was 51.9% and the viability, T/C (second compound 10 µM, first compound 10 µM) was 50%.
